Reference: article PMC9030223, “MBP-11901 Inhibits Tumor Growth of Hepatocellular Carcinoma through Multitargeted Inhibition of Receptor Tyrosine Kinases” (Cancers, 2022)

Key:
C6 = assay: CCK-8 cell proliferation/cytotoxicity assay; type: cell-based; details: Rattus norvegicus, C6, 24 h
Experimental: (§1) Cell proliferation was detected using the Cell Counting Kit-8 (CCK-8, Cat. CK04-13; Dojindo Laboratories, Kumamoto, Japan) according to the manufacturer’s instruction. To evaluate cytotoxicity, cells were seeded in a 96-well plate (FHC, 1 × 10^4 cells/well; Caki-2, PLC/PFR.5, and MCF 10A, 1 × 10^4 cells/well; AML12, HepG2, Hep3B, and Huh-7 1.2 × 10^4 cells/well; HeLa, HEK-293, A549, and PC-3, 1.5 × 10^4 cells/well; HT-29, MCF-7, C6, and NE-4C, 2 × 10^4 cells/well). After attachment and stabilization of cells for 24 h, the medium was switched with fresh containing various concentrations (0, 1, 5, 10, 25, 50, and 100 μM) of MBP-11901, and cells were incubated for 22 h. Next, CCK-8 solution was added to each well, and cells were incubated for another 2 h. Absorbance was then measured at 450 nm using a microplate reader (SpectraMax i3, Molecular Devices, San Jose, CA, USA). The IC50 and log IC50 values were calculated using GraphPad Prism (version 5.02; GraphPad PRISM software Inc. San Diego, CA, USA). All experiments were independently performed 3 times. The graph of log IC50 values represents average values.

Caki-2 = assay: CCK-8 cell proliferation/cytotoxicity assay; type: cell-based; details: Homo sapiens, CAKI-2, 24 h
Experimental: as §1

[1] = test system: FHC colon epithelial cells; assay: CCK-8 cell proliferation/cytotoxicity assay; type: cell-based; details: Homo sapiens, FHC normal cells, 24 h
Experimental: as §1

HEK-293 = assay: CCK-8 cell proliferation/cytotoxicity assay; type: cell-based; details: Homo sapiens, HEK293; HEK-293 normal cells, 24 h
Experimental: as §1

HT-29 = assay: CCK-8 cell proliferation/cytotoxicity assay; type: cell-based; details: Homo sapiens, HT-29, 24 h
Experimental: as §1

HeLa = assay: CCK-8 cell proliferation/cytotoxicity assay; type: cell-based; details: Homo sapiens, 24 h
Experimental: as §1

Hep3B = assay: CCK-8 cell proliferation/cytotoxicity assay; type: cell-based; details: Homo sapiens, 24 h treatment
Experimental: as §1

HepG2 = assay: CCK-8 cell proliferation/cytotoxicity assay; type: cell-based; details: Homo sapiens; HepG2, 24 h treatment
Experimental: as §1

Huh-7 = assay: CCK-8 cell proliferation/cytotoxicity assay; type: cell-based; details: Homo sapiens; Huh-7, 24 h treatment
Experimental: as §1

MCF-7 = assay: CCK-8 cell proliferation/cytotoxicity assay; type: cell-based; details: Homo sapiens, MCF7; MCF-7, 24 h
Experimental: as §1

[2] = test system: MCF10a breast epithelial cells; assay: CCK-8 cell proliferation/cytotoxicity assay; type: cell-based; details: Homo sapiens, MCF-10A; MCF10a normal cells, 24 h
Experimental: as §1

NE-4C = assay: CCK-8 cell proliferation/cytotoxicity assay; type: cell-based; details: Mus musculus; NE-4C normal cells, 24 h
Experimental: as §1

PC3 = assay: CCK-8 cell proliferation/cytotoxicity assay; type: cell-based; details: Homo sapiens, PC-3; PC3, 24 h
Experimental: as §1

PLC/PRF5 = assay: CCK-8 cell proliferation/cytotoxicity assay; type: cell-based; details: Homo sapiens, PLC-PRF-5; PLC/PRF5, 24 h treatment
Experimental: as §1

HepG2 cells = assay: JC-1 mitochondrial membrane potential assay; type: cell-based, human
Experimental: Alterations in MMP were investigated utilizing the cationic dye tetraethylbenzimidazolylcarbocyanine iodide (JC-1) according to the manufacturer’s instructions (Cat. ab113850, Abcam, Cambridge, MA, USA). HepG2 cells were seeded in a 35 mm^2 dish at a density of 7.5 × 10^5 cells/dish and incubated for 24 h. Cells were treated with MBP-11901 for 2 h and media was changed with fresh one. Briefly, after 2 d incubation, cells were washed with 1× dilution buffer, and incubated with 1 μM JC-1 in 1× dilution buffer for 30 min at 37 °C. Cells were then washed 3 times with 1× dilution buffer. Fluorescence was measured under a fluorescence microscope (ECLIPSE Ti, Nikon, Melville, NY, USA) using an excitation filter of 530 nm ± 15 nm and an emission filter of 590 nm ± 17.5 nm.

Huh-7 xenograft tumor = assay: Huh-7 subcutaneous xenograft; type: in vivo, mouse; details: Huh-7 subcutaneously implanted model
Text: We further verified the effectiveness of MBP-11901 by constructing a mouse model in which Hep3B and Huh-7 were subcutaneously transplanted in addition to the human liver cancer cell line HepG2. In the case of Hep3B, the administration was initiated at a tumor volume of about 300 mm^3, once every 2 d, and the experiment was terminated after a total of 12 administrations (Figure S5). […] In contrast, tumors had completely disappeared in 1 out of 6 animals in the MBP-11901 group; 1 had only a trace of a tumor measuring approximately 30 mm^3, whereas the average tumor volume in the 6 animals was approximately 100 mm^3. […] Unlike Nexavar®, there were no side-effects relating to drug resistance or rapid tumor growth.

EGFR = target: T1, EGFR (Homo sapiens, UniProt P00533); assay: KdELECT binding constant
T1 construct: purchased Eurofins DiscoverX Corporation
T1 sequence (P00533 25-1210): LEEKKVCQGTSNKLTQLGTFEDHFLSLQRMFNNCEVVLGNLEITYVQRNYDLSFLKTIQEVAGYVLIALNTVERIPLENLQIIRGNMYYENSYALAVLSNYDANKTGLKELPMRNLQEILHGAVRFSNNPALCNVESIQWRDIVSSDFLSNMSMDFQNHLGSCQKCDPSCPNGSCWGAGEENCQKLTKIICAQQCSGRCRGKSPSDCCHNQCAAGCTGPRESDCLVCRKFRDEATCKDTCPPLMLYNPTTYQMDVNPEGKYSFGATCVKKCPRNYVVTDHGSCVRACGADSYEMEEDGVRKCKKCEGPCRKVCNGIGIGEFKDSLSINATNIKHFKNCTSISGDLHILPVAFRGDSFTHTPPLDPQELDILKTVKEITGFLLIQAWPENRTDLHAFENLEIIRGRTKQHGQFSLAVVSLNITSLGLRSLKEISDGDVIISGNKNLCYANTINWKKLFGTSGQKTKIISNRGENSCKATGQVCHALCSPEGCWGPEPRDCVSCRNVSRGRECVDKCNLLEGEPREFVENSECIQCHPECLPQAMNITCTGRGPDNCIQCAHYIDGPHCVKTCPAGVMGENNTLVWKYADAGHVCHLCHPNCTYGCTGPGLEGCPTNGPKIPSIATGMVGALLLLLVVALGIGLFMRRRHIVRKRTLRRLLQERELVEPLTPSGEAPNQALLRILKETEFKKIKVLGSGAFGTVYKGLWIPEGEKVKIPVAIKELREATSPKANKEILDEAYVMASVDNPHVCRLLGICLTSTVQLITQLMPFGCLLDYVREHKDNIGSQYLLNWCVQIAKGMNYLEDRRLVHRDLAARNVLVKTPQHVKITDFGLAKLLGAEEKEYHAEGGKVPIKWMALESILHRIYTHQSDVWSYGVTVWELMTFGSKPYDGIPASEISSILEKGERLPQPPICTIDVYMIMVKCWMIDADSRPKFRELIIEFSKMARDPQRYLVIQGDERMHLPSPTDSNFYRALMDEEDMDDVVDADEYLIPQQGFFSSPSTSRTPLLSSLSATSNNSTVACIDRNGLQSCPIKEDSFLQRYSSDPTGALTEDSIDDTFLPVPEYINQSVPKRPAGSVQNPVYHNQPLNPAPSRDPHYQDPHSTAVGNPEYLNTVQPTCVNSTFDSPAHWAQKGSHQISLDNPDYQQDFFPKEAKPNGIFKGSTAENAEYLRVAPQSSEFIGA
Experimental: (§2) The profiling of MBP-11901 against a panel of 468 kinases was performed by DiscoverX using KINOMEscan technology, an active-site-dependent competition-binding assay (Eurofins DiscoverX Corporation, San Diego, CA, USA). Binding constants (Kd) were calculated by DiscoverX using KdELECT technology, a widely used assay for comparing selectivity across the kinome. The DiscoverX platform reports the thermodynamic Kd to facilitate direct comparison of inhibitor affinity across the kinome, independent of ATP concentration.

FGFR1 = target: T2, FGFR1 (Homo sapiens, UniProt P11362); assay: KdELECT binding constant
T2 construct: purchased Eurofins DiscoverX Corporation
T2 sequence (P11362 22-822): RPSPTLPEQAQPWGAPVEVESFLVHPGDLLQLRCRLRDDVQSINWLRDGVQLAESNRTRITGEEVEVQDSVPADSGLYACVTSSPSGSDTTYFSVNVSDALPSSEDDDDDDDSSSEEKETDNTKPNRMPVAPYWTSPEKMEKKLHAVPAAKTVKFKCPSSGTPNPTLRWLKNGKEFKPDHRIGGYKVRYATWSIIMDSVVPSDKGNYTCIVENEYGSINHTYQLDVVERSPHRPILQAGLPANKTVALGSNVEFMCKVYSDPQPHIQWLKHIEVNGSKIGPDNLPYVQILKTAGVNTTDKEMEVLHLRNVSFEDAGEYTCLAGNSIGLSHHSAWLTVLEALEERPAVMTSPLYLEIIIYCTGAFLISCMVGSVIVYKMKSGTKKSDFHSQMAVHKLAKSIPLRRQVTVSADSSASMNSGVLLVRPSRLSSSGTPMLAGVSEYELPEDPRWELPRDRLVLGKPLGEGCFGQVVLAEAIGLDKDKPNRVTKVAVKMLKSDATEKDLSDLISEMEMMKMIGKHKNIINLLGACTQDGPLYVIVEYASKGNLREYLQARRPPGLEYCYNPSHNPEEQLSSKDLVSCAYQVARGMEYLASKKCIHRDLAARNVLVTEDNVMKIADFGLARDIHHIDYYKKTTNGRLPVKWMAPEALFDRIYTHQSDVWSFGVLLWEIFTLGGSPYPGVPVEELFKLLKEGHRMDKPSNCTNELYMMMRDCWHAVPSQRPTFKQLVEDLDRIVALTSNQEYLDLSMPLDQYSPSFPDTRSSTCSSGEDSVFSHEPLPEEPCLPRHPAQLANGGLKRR
Experimental: as §2

FGFR2 = target: T3, FGFR2 (Homo sapiens, UniProt P21802); assay: KdELECT binding constant
T3 construct: purchased Eurofins DiscoverX Corporation
T3 sequence (P21802 22-821): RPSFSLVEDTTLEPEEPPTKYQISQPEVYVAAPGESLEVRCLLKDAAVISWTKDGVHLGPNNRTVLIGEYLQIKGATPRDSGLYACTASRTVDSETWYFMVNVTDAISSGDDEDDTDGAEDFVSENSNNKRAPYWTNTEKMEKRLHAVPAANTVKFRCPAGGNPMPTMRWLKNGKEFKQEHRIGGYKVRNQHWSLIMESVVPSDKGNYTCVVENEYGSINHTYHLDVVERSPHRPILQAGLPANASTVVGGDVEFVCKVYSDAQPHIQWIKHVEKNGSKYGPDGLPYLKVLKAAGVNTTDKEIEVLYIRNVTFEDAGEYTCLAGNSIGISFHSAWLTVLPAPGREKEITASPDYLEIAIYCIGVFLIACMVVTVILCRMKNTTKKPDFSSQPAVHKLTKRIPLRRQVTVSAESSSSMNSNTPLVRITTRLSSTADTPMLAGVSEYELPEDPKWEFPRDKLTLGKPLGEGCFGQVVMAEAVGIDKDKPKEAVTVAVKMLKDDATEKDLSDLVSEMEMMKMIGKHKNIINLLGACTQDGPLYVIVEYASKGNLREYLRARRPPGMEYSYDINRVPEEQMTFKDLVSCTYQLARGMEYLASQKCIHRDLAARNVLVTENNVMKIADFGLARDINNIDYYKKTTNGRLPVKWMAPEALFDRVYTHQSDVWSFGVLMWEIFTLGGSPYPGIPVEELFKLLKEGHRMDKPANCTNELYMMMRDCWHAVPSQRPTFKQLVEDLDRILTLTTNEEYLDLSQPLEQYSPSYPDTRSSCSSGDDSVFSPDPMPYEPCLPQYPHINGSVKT
Experimental: as §2

KIT = target: T4, KIT (Homo sapiens, UniProt P10721); assay: KdELECT binding constant; details: mean ± S.D. (n = 2)
T4 construct: purchased Eurofins DiscoverX Corporation
T4 sequence (P10721 26-976): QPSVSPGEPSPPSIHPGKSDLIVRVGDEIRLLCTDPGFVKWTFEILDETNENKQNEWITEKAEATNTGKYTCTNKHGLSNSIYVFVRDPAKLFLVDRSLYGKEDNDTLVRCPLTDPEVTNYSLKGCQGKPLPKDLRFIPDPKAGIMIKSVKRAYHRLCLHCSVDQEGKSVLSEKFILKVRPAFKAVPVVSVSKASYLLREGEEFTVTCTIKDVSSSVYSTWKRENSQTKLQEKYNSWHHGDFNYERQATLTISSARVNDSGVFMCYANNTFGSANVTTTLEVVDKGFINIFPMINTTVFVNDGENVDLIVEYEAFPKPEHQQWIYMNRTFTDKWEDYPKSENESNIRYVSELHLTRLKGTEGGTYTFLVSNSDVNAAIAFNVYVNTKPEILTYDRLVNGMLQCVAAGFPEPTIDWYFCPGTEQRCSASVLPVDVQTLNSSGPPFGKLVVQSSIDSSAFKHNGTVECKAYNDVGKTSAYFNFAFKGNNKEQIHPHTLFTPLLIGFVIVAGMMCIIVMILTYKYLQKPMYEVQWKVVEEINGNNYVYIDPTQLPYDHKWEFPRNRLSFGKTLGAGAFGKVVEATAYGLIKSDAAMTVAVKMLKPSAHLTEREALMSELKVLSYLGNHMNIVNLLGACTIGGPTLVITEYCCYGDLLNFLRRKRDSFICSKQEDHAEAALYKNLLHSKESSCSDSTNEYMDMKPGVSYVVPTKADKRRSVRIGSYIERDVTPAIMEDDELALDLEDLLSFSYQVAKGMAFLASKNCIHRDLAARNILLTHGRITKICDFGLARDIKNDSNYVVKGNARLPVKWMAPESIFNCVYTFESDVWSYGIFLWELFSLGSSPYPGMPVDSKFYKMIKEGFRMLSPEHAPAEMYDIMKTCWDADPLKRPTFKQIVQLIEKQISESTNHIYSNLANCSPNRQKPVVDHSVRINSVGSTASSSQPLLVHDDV
Experimental: as §2

Structure (SMILES): NCC(N)C(=O)Nc1ccc(-c2nc3ccccc3s2)cc1 (stereo not drawn) [MBP-11901]
- IC50 (C6): 77.8 ± 9.73 µM
- IC50 (Caki-2): 75.7 ± 3.44 µM
- IC50 [1]: 72.7 ± 1.99 µM
- IC50 (HEK-293): 68.2 ± 2.79 µM
- IC50 (HT-29): 29.86 ± 0.27 µM
- IC50 (HeLa): 41.9 ± 3.38 µM
- IC50 (Hep3B): 16.8 ± 0.88 µM
- IC50 (HepG2): 5.16 ± 1.37 µM
- IC50 (Huh-7): 29.4 ± 1.13 µM
- IC50 (MCF-7): 65.9 ± 12.3 µM
- IC50 [2]: 65.1 ± 1.88 µM
- IC50 (NE-4C): 36.8 ± 3.66 µM
- IC50 (PC3): 95 ± 0.82 µM
- IC50 (PLC/PRF5): 18.6 ± 0.81 µM
- mitochondrial potential (JC-1) (HepG2 cells): decrease in mitochondrial potential
- tumor disappearance (Huh-7 xenograft tumor): did not result in tumor disappearance
- tumor weight (Huh-7 xenograft tumor): significantly reduced
- Kd (EGFR): > 30 µM
- Kd (FGFR1): > 30 µM
- Kd (FGFR2): > 30 µM
- Kd (KIT): 3.85 ± 1.15 µM
